Key:
[1] = target: Purine nucleoside phosphorylase (Bos taurus) (UniProt P55859); experiment: Inhibition of calf spleen PNP (purine nucleoside phosphorylase) in 1 mM phosphate
[2] = target: Purine nucleoside phosphorylase (Bos taurus) (UniProt P55859); experiment: Inhibition of calf spleen PNP (purine nucleoside phosphorylase) in 50 mM phosphate

Sequence of Purine nucleoside phosphorylase (Bos taurus) (P55859 whole entry, looked up): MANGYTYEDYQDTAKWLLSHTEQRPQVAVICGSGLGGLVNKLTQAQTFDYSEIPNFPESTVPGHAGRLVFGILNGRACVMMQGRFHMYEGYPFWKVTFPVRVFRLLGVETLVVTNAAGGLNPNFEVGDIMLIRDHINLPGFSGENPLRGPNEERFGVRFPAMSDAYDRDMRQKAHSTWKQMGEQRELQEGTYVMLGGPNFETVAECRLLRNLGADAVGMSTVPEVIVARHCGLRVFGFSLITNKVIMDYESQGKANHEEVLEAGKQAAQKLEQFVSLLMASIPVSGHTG

Row | SMILES | IC50 [1] [µM] | IC50 [2] [µM]
1 | CC(C)(CCn1cnc2c(=O)[nH]c(N)nc21)CCS(N)(=O)=O [5-(2-Amino-6-oxo-1,6-dihydro-purin-9-yl)-3,3-dimethyl-pentane-1-sulfonic acid amide] | 100 | > 300
2 | CC(C)(CCn1cnc2c(=O)[nH]c(N)nc21)CCP(=O)(O)O [[5-(2-Amino-6-oxo-1,6-dihydro-purin-9-yl)-3,3-dimethyl-pentyl]-phosphonic acid] | 0.044 | 2
3 | CC(C)(CCC#N)CCn1cnc2c(=O)[nH]c(N)nc21 [6-(2-Amino-6-oxo-1,6-dihydro-purin-9-yl)-4,4-dimethyl-hexanenitrile] | 260 | > 300
4 | CC(C)(CCS)CCn1cnc2c(=S)[nH]c(N)nc21 [2-Amino-9-(5-mercapto-3,3-dimethyl-pentyl)-1,9-dihydro-purine-6-thione] | 50 | 95
5 | CC(C)(CCn1cnc2c(=O)[nH]c(N)nc21)CCS(=O)(=O)O [5-(2-Amino-6-oxo-1,6-dihydro-purin-9-yl)-3,3-dimethyl-pentane-1-sulfonic acid] | 0.18 | 9
6 | CC(C)(CCC(=O)O)CCn1cnc2c(=O)[nH]c(N)nc21 [6-(2-Amino-6-oxo-1,6-dihydro-purin-9-yl)-4,4-dimethyl-hexanoic acid] | 8 | 290
7 | CC(C)(CCC(N)=O)CCn1cnc2c(=O)[nH]c(N)nc21 [6-(2-Amino-6-oxo-1,6-dihydro-purin-9-yl)-4,4-dimethyl-hexanoic acid amide] | 200 | > 300
